The record followed here is PubChem BioAssay (NCI).

The structures appear in SMILES notation.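 Following 48 hours of exposure in 96-well plates, responses at five concentrations were used to interpolate endpoints linearly. The concentration for full growth arrest is given as TGI.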

What all share (assay): NCI anticancer screen, dose series, 48 h
The subject of test [1] is SF-295 CNS.
Test [2] concerns OVCAR-5 ovarian.
Test [3] has as its system SF-539 CNS.
Test [4] deals with SK-MEL-28 melanoma.
Test [5] has as its system NCI-H23 lung.
In test [6] the test system is U251 CNS.
The test system of test [7] is HT29 colon.
Test [8] concerns HOP-92 NSCLC.
Test [9] has as its system UO-31 renal.
Test [10] relates to SN12C renal.
For test [11], the system named is T-47D breast.
Test [12] concerns NCI-H460 lung.
Test [13] deals with HL-60(TB) leukemia.
Test [14] relates to ACHN renal.
Test [15] deals with NCI-H522 lung.
Test [16] has as its system CCRF-CEM leukemia.
Test [17] relates to IGROV1 ovarian.
In test [18] the test system is RXF 393 renal.
In test [19] the test system is UACC-257 melanoma.

Consider `O=S(=O)(O)c1cc(S(=O)(=O)O)c2c(N=Nc3cccc4ccccc34)c(O)ccc2c1`, for which the TGI in test [1], in test [2], in [3], in test [4], in test [5] and in test [6] was above 100 µM each time. The TGI in [7], in [8], in [9], in [10], in test [11] and in test [12] was above 100 µM in each case. Besides, the TGI in test [13], in test [14], in test [15], in test [16], in test [17] and in test [18] was above 100 µM throughout. Further, the TGI in test [19] is above 100 µM.
As to `CCCCCCCC1c2cc3[nH]c(cc4nc(cc5[nH]c(cc(n2)[C@@]1(C)CC(=O)N(C)C)c(C)c5CCC(=O)O)C(CCC(=O)O)=C4C)cc3C` (some centres not stated), the TGI in test [1] was 37.5 µM; in [2], 55.5 µM; in test [3], 34.2 µM; in test [4], 35.8 µM; in test [5] it was 34.1 µM; in test [6] it was 32.9 µM. Moreover, the TGI in test [7] is 39.8 µM; in test [8], 43.8 µM; in test [9] it was 32.5 µM; in test [10], 76.1 µM; in test [11], above 100 µM; in test [12] it was 43.8 µM. In addition, the TGI in [13] was determined as 45.8 µM; in test [14], 35.8 µM; in test [15] it was 37.8 µM; in test [16], 42.6 µM; in test [17], 39.6 µM; in test [18], 33.9 µM. Moreover, in test [19], the TGI was determined as 35.2 µM.
On to `COc1cccc2c1C(=O)C(=O)c1c-2oc(=O)c2cc(C)cc(OC)c12`, for which the TGI in test [1] is above 75 µM; in test [2], above 75 µM; in test [3], above 75 µM; in [4] it was above 75 µM; in [5], 58.4 µM; in test [6], 23.2 µM. Besides, the TGI in test [7], in [8], in test [9], in test [10], in test [11] and in test [12] was above 75 µM in each case. In addition, the TGI in test [13] was 49.9 µM; in test [14], above 75 µM; in test [15] it was 26.5 µM; in test [16], above 75 µM; in test [17], 32 µM; in test [18], 42.8 µM. In test [19], this compound returned a TGI of 32.4 µM.
On to `NCCCNc1ccc2c(c1)[n+]([O-])c1ccccc1[n+]2[O-]`, for which the TGI in test [1] was above 100 µM; in [2] it was above 100 µM; in test [3] it was 53.9 µM; in [4] it was above 100 µM; in test [5] it was 97.5 µM; in [6], 91.9 µM. Further, the TGI is above 100 µM in test [7]; 62.6 µM in test [8]; above 100 µM in test [9]; above 100 µM in [10]; 69.6 µM in test [11]; 53.6 µM in test [12]. Also, the TGI was found to be 57.6 µM in test [13]; 77.7 µM in test [14]; 30.7 µM in test [15]; 91.4 µM in test [16]; 41.5 µM in [17]; 55.9 µM in test [18]. This compound also yielded a TGI in test [19] of 83.2 µM.
Turning to `CC(=O)C1(c2ccccc2)CCN(Cn2sc3nc(C)cc(C)c3c2=O)CC1`, the TGI in test [1] is above 100 µM; in [2], 39 µM; in test [3], 50.9 µM; in [4], 93.1 µM; in test [5], 41.6 µM; in test [6], above 100 µM. Also, the TGI in [7] is 36.9 µM; in test [8] it was above 100 µM; in [9], 31.8 µM; in [10], 49.8 µM; in test [11], above 100 µM; in test [12] it was 34.1 µM. In addition, the TGI in test [13] was 52.5 µM; in test [14], 33.5 µM; in test [15], 29 µM; in test [16] it was above 100 µM; in test [17], above 100 µM; in [18] it was 39.3 µM.
On to `O=C1c2ccccc2C(=O)c2c(OCC3CO3)ccc(OCC3CO3)c21` (configuration not stated), for which the TGI in test [1] came to 11.8 µM; in test [2] it was 30.9 µM; in test [3], 9.02 µM; in test [4], 12 µM; in test [6], 12.1 µM; in test [7], 15.1 µM. Also, the TGI in test [8] came to 10.7 µM; in test [9] it was 10.4 µM; in test [10] it was 4.74 µM; in test [11], 24.1 µM; in test [12], 8.86 µM; in test [13], 2.18 µM. Besides, the TGI in [14] was determined as 6.63 µM; in test [15], 13 µM; in [16], 0.393 µM; in [17] it was 10.8 µM; in test [18], 8.31 µM; in test [19], 19.4 µM.
For the compound `Cc1cc(S(=O)(=O)Nc2nc(N)n(-c3cnc4ccccc4n3)n2)c(S)cc1Cl`, the TGI in test [2] is above 100 µM; in test [3] it was above 100 µM; in test [4], above 100 µM; in test [6], above 100 µM; in [7], above 100 µM; in test [8], 89.2 µM. Besides, the TGI in test [9], in [10], in test [11], in test [12], in test [13] and in test [14] was above 100 µM throughout. Moreover, the TGI in [15], in test [16], in [17], in test [18] and in test [19] was above 100 µM in each case.
For `O=c1c2cccnc2[nH]c2ccc3scnc3c12`, the TGI in [1], in test [2], in [3], in test [4], in test [5] and in test [6] was above 10 µM throughout. Moreover, the TGI in test [7], in test [8], in test [10], in test [11], in [12] and in [13] was above 10 µM in each case. For the same compound, the TGI was above 10 µM in test [14]; above 10 µM in [15]; above 10 µM in [16]; above 10 µM in [17]; 8.71 µM in test [18]; above 10 µM in test [19].
